# Measurements taken from patent US5714485A, “Piperidine and hexahydropyridazine thrombin inhibitors” (Merck & Co., Inc., priority 1997, dated 1998).
# Target: T1, human a-thrombin (Homo sapiens, UniProt P00734)
# T1 construct: human a-thrombin
# Test: In vitro assay for determining proteinase inhibition: human a-thrombin
# Type: biochemical
# Conditions: not given
# Description: Assays of human a-thrombin and bovine trypsin were performed at 25° C. in 0.05M TRIS buffer pH 7.4, 0.15M NaCl, 0.1% PEG. Trypsin assays also contained 1 mM CaCl2.
# Concentrations of stock solutions of Z-GPR-afc were determined from measurements of absorbance at 380 nm of the 7-amino-4-trifluoromethyl coumarin produced upon complete hydrolysis of an aliquot of the stock solution by thrombin.
# Activity assays were performed by diluting a stock solution of substrate at least tenfold to a final concentration ≥0. I Km into a solution containing enzyme or enzyme equilibrated with inhibitor. Times required to achieve equilibration between enzyme and inhibitor were determined in control experiments. Initial velocities of product formation in the absence (Vo) or presence of inhibitor (Vi) were measured. Assuming competitive inhibition, and that unity is negligible compared Km /[S], […] (where [S], [I], and e respectively represent the total concentrations, of substrate, inhibitor and enzyme), the equilibrium constant (Ki) for dissociation of the inhibitor from the enzyme can be obtained from the dependence of Vo /Vi on [I] shown in equation 1.
row,SMILES,Ki
1,N[C@H]1CC[C@H](CNC(=O)[C@@H]2CCCN2C(=O)[C@@H](Cc2ccccc2)NS(=O)(=O)Cc2ccccc2)CC1,0.4 nM
2,N[C@H]1CC[C@H](CNC(=O)[C@@H]2CCCN2C(=O)C2(O)c3ccccc3Sc3ccccc32)CC1,3 nM

# Same assay, conditions: Table 1, part headed Ki (NM); read-out: Ki vs thrombin
row,SMILES,Ki
1,CC(C)(C)OC(=O)N[C@H](CCc1ccccc1)C(=O)N1CCC[C@H]1C(=O)NC[C@H]1CC[C@H](N)CC1,50 nM
2,"CC(C)(C)OC[C@@H](NC(=O)OC(C)(C)C)C(=O)N1CCC[C@H]1C(=O)NC[C@H]1CC[C@H](N)CC1 [BocNH, CH2 O-tBu]",6 nM
3,CC(C)(C)OC(=O)N[C@@H](C(=O)N1CCC[C@H]1C(=O)NC[C@H]1CC[C@H](N)CC1)c1ccccc1,6.8 nM
4,"CC(C)(C)C[C@@H](NC(=O)OCc1ccccc1)C(=O)N1CCC[C@H]1C(=O)NC[C@H]1CC[C@H](N)CC1 [CbzNH, CH2 -tBu]",2.3 nM
5,CC(C)(C)OC(=O)N[C@H](CC1CCCCC1)C(=O)N1CCC[C@H]1C(=O)NC[C@H]1CC[C@H](N)CC1,12 nM
6,N[C@H]1CC[C@H](CNC(=O)[C@@H]2CCCN2C(=O)[C@@H](Cc2ccccc2)NC(=O)OCc2ccncc2)CC1,15 nM
7,N[C@H]1CC[C@H](CNC(=O)[C@@H]2CCCN2C(=O)[C@@H](Cc2c[nH]c3ccccc23)NC(=O)OCc2ccccc2)CC1,16 nM

# Same assay, conditions: Table 1; read-out: Ki vs Thrombin
row,SMILES,Ki
1,CC(C)(C)OC(=O)N[C@H](Cc1ccccc1)C(=O)N1CCC[C@H]1C(=O)NC[C@H]1CC[C@H](N)CC1,9.4 nM
2,N[C@H]1CC[C@H](CNC(=O)[C@@H]2CCCN2C(=O)[C@@H](CC2CCCCC2)NS(=O)(=O)CC(F)(F)F)CC1,3 nM
3,N[C@H](Cc1cccnc1)C(=O)N1CCC[C@H]1C(=O)NC[C@H]1CC[C@H](N)CC1,30 nM
4,"N[C@H]1CC[C@H](CNC(=O)[C@@H]2CCCN2C(=O)CCc2ccc(Cl)c(Cl)c2)CC1 [3,4-Cl2PhCH2, H]",414 nM
5,N[C@H]1CC[C@H](CNC(=O)[C@@H]2CCCN2C(=O)[C@@H](Cc2ccccc2)NC(=O)OCc2ccccc2)CC1,3.7 nM
6,"N[C@H](Cc1ccc(Cl)c(Cl)c1)C(=O)N1CCC[C@H]1C(=O)NC[C@H]1CC[C@H](N)CC1 [3,4-Cl2PhCH2, NH2]",1.5 nM
7,CC(=O)N[C@H](Cc1ccccc1)C(=O)N1CCC[C@H]1C(=O)NC[C@H]1CC[C@H](N)CC1,170 nM
8,CC(C)(C)OC(=O)N[C@@H](C(=O)N1CCC[C@H]1C(=O)NC[C@H]1CC[C@H](N)CC1)[C@@H](OC(C)(C)C)c1ccccc1,8 nM
9,"CC(=O)N1CCC[C@H]1C(=O)NC[C@H]1CC[C@H](N)CC1 [H, H]",> 10000 nM
10,"N[C@H]1CC[C@H](CNC(=O)[C@@H]2CCCN2C(=O)CCc2ccccc2)CC1 [PhCH2, H]",680 nM
11,N[C@H](Cc1ccc2ccccc2c1)C(=O)N1CCC[C@H]1C(=O)NC[C@H]1CC[C@H](N)CC1,27 nM
12,CN[C@H](CC1CCCCC1)C(=O)N1CCC[C@H]1C(=O)NC[C@H]1CC[C@H](N)CC1,2.3 nM
13,N[C@H]1CC[C@H](CNC(=O)[C@@H]2CCCN2C(=O)C2Cc3ccccc3CN2)CC1 (some centres unmarked),152 nM
14,N[C@H]1CC[C@H](CNC(=O)[C@@H]2CCCN2C(=O)[C@H](O)Cc2ccccc2)CC1,63 nM
15,CC(C)(C)OC(=O)N[C@@H](C(=O)N1CCC[C@H]1C(=O)NC[C@H]1CC[C@H](N)CC1)C(OC(C)(C)C)c1ccccc1 (some centres unmarked),200 nM
16,N[C@H]1CC[C@H](CNC(=O)[C@@H]2CCCN2C(=O)[C@@H](Cc2ccccc2)NCCc2ccccc2)CC1,4 nM
17,"N[C@H]1CC[C@H](CNC(=O)[C@@H]2CCCN2C(=O)CCC2CCCCC2)CC1 [C6 H11 CH2, H]",150 nM
18,"CN[C@H](Cc1ccc(Cl)c(Cl)c1)C(=O)N1CCC[C@H]1C(=O)NC[C@H]1CC[C@H](N)CC1 [3,4-Cl2PhCH2, CH3 NH]",2.9 nM
19,"CS(=O)(=O)N[C@H](Cc1ccccc1)C(=O)N1CCC[C@H]1C(=O)NC[C@H]1CC[C@H](N)CC1 [PhCH2, CH3 SO2 NH]",17 nM
20,"N[C@H](Cc1ccccc1)C(=O)N1CCC[C@H]1C(=O)NC[C@H]1CC[C@H](N)CC1 [PhCH2, NH2]",3.4 nM

# Same assay, conditions: Table 2, lower part; head Ki(nM) without target; read-out: Ki
row,SMILES,Ki
1,N[C@H]1CC[C@H](CNC(=O)[C@@H]2CCCN2C(=O)[C@H](NCC(=O)O)C(c2ccc(Cl)cc2)c2ccc(Cl)cc2)CC1,0.13 nM
2,C[C@@H](N[C@@H](C(=O)N1CCC[C@H]1C(=O)NC[C@H]1CC[C@H](N)CC1)C(c1ccccc1)c1ccccc1)C(=O)O [drawing 41],0.05 nM
3,N[C@H]1CC[C@H](CNC(=O)[C@@H]2CCCN2C(=O)[C@H](NCC(=O)O)C(c2ccccc2)c2ccccc2)CC1 [drawing 39],0.17 nM
4,N[C@H]1CC[C@H](CNC(=O)[C@@H]2CCCN2C(=O)C2(O)c3ccccc3-c3ccccc32)CC1,1.5 nM
5,N[C@H]1CC[C@H](CNC(=O)[C@@H]2CCCN2C(=O)C2COc3ccccc3O2)CC1 (some centres unmarked),55 nM

# Same assay, conditions: Table 2; read-out: Ki vs thrombin
row,SMILES,Ki
1,CC1(C)C2CCC1(CS(=O)(=O)N[C@H](CC1CCCCC1)C(=O)N1CCC[C@H]1C(=O)NC[C@H]1CC[C@H](N)CC1)C(=O)C2 (some centres unmarked),0.1 nM
2,N[C@@H](C(=O)N1CCC[C@H]1C(=O)NC[C@H]1CC[C@H](N)CC1)C(c1ccccc1)c1ccccc1,0.12 nM
3,CC(C)(C)OC(=O)N[C@@H](C(=O)N1CCC[C@H]1C(=O)NC[C@H]1CC[C@H](N)CC1)C(c1ccccc1)c1ccccc1,0.102 nM
4,N[C@H]1CC[C@H](CNC(=O)[C@@H]2CCCN2C(=O)[C@@H](Cc2ccccc2)NCC(=O)O)CC1,1.3 nM
5,CC(C)(C)OC[C@@H](NS(=O)(=O)CC12CCC(CC1=O)C2(C)C)C(=O)N1CCC[C@H]1C(=O)NC[C@H]1CC[C@H](N)CC1 (some centres unmarked),0.05 nM
6,CC(C)(C)C[C@@H](NS(=O)(=O)Cc1ccccc1)C(=O)N1CCC[C@H]1C(=O)NC[C@H]1CC[C@H](N)CC1,0.4 nM
7,N[C@H]1CC[C@H](CNC(=O)[C@@H]2CCCN2C(=O)CC(c2ccccc2)c2ccccc2)CC1,2 nM

# Same assay, conditions: compared with the other diastereomer
row,SMILES,relative activity of diastereomers in a thrombin inhibition assay
1,"N[C@H]1CC[C@H](CNC(=O)[C@@H]2CCCN2C(=O)[C@H](NS(=O)(=O)Cc2ccccc2)C(c2ccccc2)c2ccccc2)CC1 (single isomer, unassigned) [Example 9 less polar diastereomer, trans-4-Amino-cyclohexylmethyl N-(benzylsulfonyl)-D and L-3,3-diphenylalanyl-L-proline amide]",more active isomer
2,"N[C@@H](C(=O)N1CCC[C@H]1C(=O)NC[C@H]1CC[C@H](N)CC1)C(c1ccccc1)c1ccccc1 (single isomer, unassigned) [Example 7 less polar diastereomer, trans-4-Aminocyclohexylmethyl L- and D-(3,3)-diphenyl alanyl-L-proline amide]",more active isomer

# Test system: thrombotic occlusion of the right carotid artery
# Test: In vivo rat ferric chloride assay measuring thrombotic occlusion
# Parameters: species or system Male Sprague-Dawley rats
# Conditions: i.v. dose 1 μg/kg/min, FeCl3, rats
# Description: Applicants have conducted in vivo studies of the compounds claimed herein using the following rat ferric chloride assay.
# In the assay used to determine in vivo activity of the thrombin inhibitors or the invention, Male Sprague-Dawley rats (body weights 200-350 grams) were anesthetized with dial-urethane solution (0.1 ml/100 gm body weight i.p.), and a lateral tail vein was cannulated with a 23 gauge needle connected to a 12 inch length of PE50 tubing. The tubing was attached to a 3-way valve by a tubing adapter. Saline (control) or test compound, as appropriate, was administered via the tail vein catheter. A tracheostomy was performed with a 0.75 inch length of PE205 tubing. The right carotid artery was exposed and a 1.3 mm diameter Doppler flow probe was placed on the vessel. Body temperature was maintained at 37° C. using a heat lamp.
# Rats (8-10/group) were randomized to continuous intravenous infusions of saline or test compound administered via the tail vein at a rate of 0.028 ml/min. Treatment infusions were initiated 120 min before the placement of a 3 mm square piece of Whatman No. 1 filter paper saturated with 35% FeCl3 onto the exposed carotid artery distal to the flow probe. […] Time to occlusion was defined as the time from application of FeCl3 to thrombotic occlusion of the vessel.
row,SMILES,Incidence of occlusion
1,N[C@H]1CC[C@H](CNC(=O)[C@@H]2CCCN2C(=O)[C@H](NCC(=O)O)C(c2ccccc2)c2ccccc2)CC1 [drawing 47],1/6
2,C[C@@H](N[C@@H](C(=O)N1CCC[C@H]1C(=O)NC[C@H]1CC[C@H](N)CC1)C(c1ccccc1)c1ccccc1)C(=O)O [drawing 48],1/6

# Same assay, conditions: i.v. dose 10 μg/kg/min, FeCl3, rats
row,SMILES,Incidence of occlusion
1,N[C@H]1CC[C@H](CNC(=O)[C@@H]2CCCN2C(=O)[C@H](NCC(=O)O)C(c2ccccc2)c2ccccc2)CC1 [drawing 47],0/6
2,C[C@@H](N[C@@H](C(=O)N1CCC[C@H]1C(=O)NC[C@H]1CC[C@H](N)CC1)C(c1ccccc1)c1ccccc1)C(=O)O [drawing 48],0/6
